{"source": "patent US6096749A", "about": "“Pyrrolopyrimidine derivatives having pharmacological activity” (Novartis Corporation, priority 1994, dated 2000)", "key": {"EGF-R ICD": {"target": "T1, EGF-R ICD (Homo sapiens, UniProt P00533)", "T1 construct": "recombinant intracellular domains of the EGF-receptor (EGF-R ICD)", "T1 sequence (P00533 669-1210 limits assumed)": "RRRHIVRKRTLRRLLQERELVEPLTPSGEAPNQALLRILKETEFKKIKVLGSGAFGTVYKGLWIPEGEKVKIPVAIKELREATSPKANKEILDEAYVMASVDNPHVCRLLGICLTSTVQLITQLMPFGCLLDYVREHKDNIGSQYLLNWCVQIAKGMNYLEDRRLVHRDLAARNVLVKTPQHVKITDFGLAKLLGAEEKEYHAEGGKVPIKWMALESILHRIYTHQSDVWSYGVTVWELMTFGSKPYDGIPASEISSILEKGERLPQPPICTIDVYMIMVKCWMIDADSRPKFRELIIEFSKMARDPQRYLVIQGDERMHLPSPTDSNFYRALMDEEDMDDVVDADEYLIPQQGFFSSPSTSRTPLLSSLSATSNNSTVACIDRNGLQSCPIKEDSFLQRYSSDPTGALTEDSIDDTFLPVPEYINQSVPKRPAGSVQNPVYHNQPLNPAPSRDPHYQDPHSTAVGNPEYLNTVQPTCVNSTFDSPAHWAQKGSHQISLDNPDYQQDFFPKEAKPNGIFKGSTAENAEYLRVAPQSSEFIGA", "experiment": "Inhibitory action on EGF-R ICD (intracellular domains of the EGF receptor) tyrosine protein kinase, Test A", "type": "biochemical", "details": "concentration at which inhibition is half the maximum inhibition", "description": "Test A) Inhibitory action on EGF-R ICD (ICD=intracellular domains): The test system is described above. The result is given as IC50 in μM (concentration of active ingredient at which inhibition is half the maximum inhibition).\nThe test system is described above. The result is given as IC50 in μM (concentration of active ingredient at which inhibition is half the maximum inhibition)."}, "[1]": {"test_system": "BALB/c mouse keratinocyte cell line (MK cells)", "experiment": "Inhibitory action on the growth of MK cells (BALB/MK), Test B", "type": "cell-based", "details": "72 h, three days incubation, methylene blue staining, Examples 16 to 22", "description": "The test compounds (dissolved in DMSO) are added in a series of concentrations (dilution series), so that the final concentration of DMSO is not grater than 1% (v/v). […] The growth of the MK cells is measured by means of methylene blue staining: after incubation, the cells are fixed with glutaraldehyde, washed with water and stained with 0.05% methylene blue. […] IC50 values are calculated by means of a computer-assisted system using the formula:\nIC50 =(ODtest -ODstart)/(ODcontrol\nTest B) Inhibitory action on the growth of MK cells: The test system is described in detail above. The result is given as IC50 in μM (concentration of active ingredient at which inhibition is half the maximum inhibition)."}, "[2]": {"details": "Example 32, table 3, read-out: IC50 (inhibitory action on the intracellular domains of EGF-R (ICD))"}, "[3]": {"details": "Examples 16 to 22, read-out: IC50 (Test A: inhibitory action on EGF-R ICD)"}}, "note": "Values joined by “and” are separate entries in the source; they are usually repeats but may differ in a detail not shown here. Identical values can stand only once. Like-named read-outs stand apart in the source and are kept apart here."}
{"smiles": "COc1cccc(Nc2ncnc3[nH]c4c(c23)CCCC4)c1", "note": "[Example 11, 4-(m-Methoxyanilino)-5,6-tetramethylene-7H-pyrrolo[2,3-d]pyrimidine]", "values": [{"measurement": "IC50", "setting": "EGF-R ICD; [2]", "value": 350, "unit": "nM"}]}
{"smiles": "Fc1cccc(Nc2ncnc3[nH]c4c(c23)CCCC4)c1", "note": "[Example 9, 4-(m-Fluoroanilino)-5,6-tetramethylene-7H-pyrrolo[2,3-d]pyrimidine]", "values": [{"measurement": "IC50", "setting": "EGF-R ICD; [2]", "value": 200, "unit": "nM"}]}
{"smiles": "FC(F)(F)c1cccc(Nc2ncnc3[nH]c4c(c23)CCCC4)c1", "note": "[Example 14, 4-(m-Trifluoromethylanilino)-5,6-tetramethylene-7H-pyrrolo[2,3-d]-pyrimidine]", "values": [{"measurement": "IC50", "setting": "EGF-R ICD; [2]", "value": 360, "unit": "nM"}]}
{"smiles": "Cc1[nH]c2ncnc(Nc3ccc(Cl)c(Cl)c3)c2c1C", "note": "[Example 18, 4-(m,p-Dichloroanilino)-5,6-dimethyl-7H-pyrrolo[2,3.d]pyrimidine]", "values": [{"measurement": "IC50", "setting": "EGF-R ICD; [3]", "value": 70, "unit": "nM"}, {"measurement": "IC50", "setting": "[1]", "value": 34800, "unit": "nM"}]}
{"smiles": "Cc1ccc(Nc2ncnc3[nH]c(C)c(C)c23)cc1", "note": "[Example 17, 4-(p-Methylanilino)-5,6-dimethyl-7H-pyrrolo[2,3-d]pyrimidine]", "values": [{"measurement": "IC50", "setting": "EGF-R ICD; [3]", "value": 1900, "unit": "nM"}, {"measurement": "IC50", "setting": "[1]", "value": 24600, "unit": "nM"}]}
{"smiles": "Cc1[nH]c2ncnc(Nc3cccc(Br)c3)c2c1C", "note": "[Example 2, 4-(m-Bromoanilino)-5,6-dimethyl-7H-pyrrolo[2,3-d]pyrimidine]", "values": [{"measurement": "IC50", "setting": "EGF-R ICD; [2]", "value": 25, "unit": "nM"}]}
{"smiles": "Cc1cccc(Nc2ncnc3[nH]c4c(c23)CCCC4)c1", "note": "[Example 10, 4-(m-Methylanilino)-5,6-tetramethylene-7H-pyrrolo[2,3-d]pyrimidine]", "values": [{"measurement": "IC50", "setting": "EGF-R ICD; [2]", "value": 820, "unit": "nM"}]}
{"smiles": "Clc1ccc(Nc2ncnc3[nH]c4c(c23)CCCC4)cc1Cl", "note": "[Example 15, 4-(m,p-Dichloroanilino)-5,6-tetramethylene-7H-pyrrolo[2,3-d]pyrimidine]", "values": [{"measurement": "IC50", "setting": "EGF-R ICD; [2]", "value": 150, "unit": "nM"}]}
{"smiles": "Brc1cccc(Nc2ncnc3[nH]c4c(c23)CCCC4)c1", "note": "[Example 8, 4-(m-Bromoanilino)-5,6-tetramethylene-7H-pyrrolo[2,3-d]pyrimidine]", "values": [{"measurement": "IC50", "setting": "EGF-R ICD; [2]", "value": 46, "unit": "nM"}]}
{"smiles": "COc1ccc(OC)c(-c2cc3c(Nc4cccc(Cl)c4)ncnc3[nH]2)c1", "note": "[Example 27, 4-(m-Chloroanilino)-6-(2,5-dimethoxyphenyl)-7H-pyrrolo[2,3-d]-pyrimidine]", "values": [{"measurement": "IC50", "setting": "EGF-R ICD; [2]", "value": 33, "unit": "nM"}]}
{"smiles": "COc1ccc(-c2[nH]c3ncnc(Nc4cccc(Cl)c4)c3c2C)cc1", "note": "[Example 29, 4-(m-Chloroanilino)-5-methyl-6-(4-methoxyphenyl)-7H-pyrrolo[2,3-d]-pyrimidine]", "values": [{"measurement": "IC50", "setting": "EGF-R ICD; [2]", "value": 430, "unit": "nM"}]}
{"smiles": "Cc1[nH]c2ncnc(Nc3ccc(F)cc3)c2c1C", "note": "[Example 20, 4-(p-Fluoroanilino)-5,6-dimethyl-7H-pyrrolo[2,3-d]pyrimidine]", "values": [{"measurement": "IC50", "setting": "EGF-R ICD; [3]", "value": 560, "unit": "nM"}, {"measurement": "IC50", "setting": "[1]", "value": 13100, "unit": "nM"}]}
{"smiles": "COc1cccc(-c2cc3c(Nc4cccc(Cl)c4)ncnc3[nH]2)c1", "note": "[Example 30, 4-(m-Chloroanilino)-6-(3-methoxyphenyl)-7H-pyrrolo[2,3-d]pyrimidine]", "values": [{"measurement": "IC50", "setting": "EGF-R ICD; [2]", "value": 1770, "unit": "nM"}]}
{"smiles": "Cc1cccc(Nc2ncnc3[nH]c(C)c(C)c23)c1", "note": "[Example 5, 4-(m-Methylanilino)-5,6-dimethyl-7H-pyrrolo[2,3-d]pyrimidine]", "values": [{"measurement": "IC50", "setting": "EGF-R ICD; [2]", "value": 570, "unit": "nM"}]}
{"smiles": "Clc1cccc(Nc2ncnc3[nH]c(-c4ccccc4)cc23)c1", "note": "[Example 28, 4-(m-Chloroanilino)-6-(phenyl)-7H-pyrrolo[2,3-d]pyrimidine]", "values": [{"measurement": "IC50", "setting": "EGF-R ICD; [2]", "value": 13, "unit": "nM"}]}
{"smiles": "Cc1[nH]c2ncnc(Nc3ccccc3F)c2c1C", "note": "[Example 19, 4-(o-Fluoroanilino)-5,6-dimethyl-7H-pyrrolo[2,3-d]pyrimidine]", "values": [{"measurement": "IC50", "setting": "EGF-R ICD; [3]", "value": 1600, "unit": "nM"}, {"measurement": "IC50", "setting": "[1]", "value": 49300, "unit": "nM"}]}
{"smiles": "COc1ccc(-c2cc3c(Nc4cccc(Cl)c4)ncnc3[nH]2)cc1", "note": "[Example 26, 4(m-Chloroanilino)-6-(4-methoxyphenyl)-7H-pyrrolo[2,3-d]pyrimidine]", "values": [{"measurement": "IC50", "setting": "EGF-R ICD; [2]", "value": 15, "unit": "nM"}]}
{"smiles": "Cc1ccc(Nc2ncnc3[nH]c4c(c23)CCCC4)cc1", "note": "[Example 22, 4-(4-Methylanilino)-5,6-tetramethylene-7H-pyrrolo[2,3-d]pyrimidine]", "values": [{"measurement": "IC50", "setting": "EGF-R ICD; [3]", "value": 110, "unit": "nM"}, {"measurement": "IC50", "setting": "[1]", "value": 13900, "unit": "nM"}]}
{"smiles": "COc1ccccc1-c1cc2c(Nc3cccc(Cl)c3)ncnc2[nH]1", "note": "[Example 31, 4-(m-Chloroanilino)-6-(2-methoxyphenyl)-7H-pyrrolo[2,3-d]pyrimidine]", "values": [{"measurement": "IC50", "setting": "EGF-R ICD; [2]", "value": 19, "unit": "nM"}]}
{"smiles": "Brc1cccc(Nc2ncnc3[nH]c(-c4ccccc4)c(-c4ccccc4)c23)c1", "note": "[Example 13, 4-(m-Bromoanilino)-5,6-diphenyl-7H-pyrrolo[2,3-d]pyrimidine]", "values": [{"measurement": "IC50", "setting": "EGF-R ICD; [2]", "value": "96 nM and 33 nM"}]}
{"smiles": "Cc1[nH]c2ncnc(Nc3cc(Cl)cc(Cl)c3)c2c1C", "note": "[Example 4, 4-(m,m-Dichloroanilino)-5,6-dimethyl-7H-pyrrolo[2,3-d]pyrimidine]", "values": [{"measurement": "IC50", "setting": "EGF-R ICD; [2]", "value": 170, "unit": "nM"}]}
{"smiles": "Cc1[nH]c2ncnc(Nc3cccc(F)c3)c2c1C", "note": "[Example 3, 4-(m-Fluoroanilino)-5,6-dimethyl-7H-pyrrolo[2,3-d]pyrimidine]", "values": [{"measurement": "IC50", "setting": "EGF-R ICD; [2]", "value": 550, "unit": "nM"}]}
